Results: US8440423B2, “Bioremediation of nanomaterials” (U.S. Department of Energy, priority 2007, dated 2013)

Assays:
E. coli, and B. subtilis = conditions: up to 5 mg/L; cited from earlier work
mouse skin = conditions: repeating subchronic topical dose on mouse skin for up to 24 weeks; cited from earlier work
Solubility in water = format: physicochemical
[1] = system: 22 collection strains including E coli, B. subtilis, etc.; conditions: ~43 mg/L; cited from earlier work
Escherichia coli W3110 = test: Growth of E. coli W3110 in minimal [3-13C]L-lactate medium with nanoparticles added (OD600); format: cell-based
Procedure: (§1) Tracer Experiments. Shewanella oneidensis MR-1 and Escherichia coli W3110 were cultured in minimal medium (described in Tang, Y. J. J.; Laidlaw, D.; Gani, K.; Keasling, J. D. Biotechnology and Bioengineering 2006, 95, (1), 176-184) and hereby incorporated by reference). The medium was supplied with 30 mM (98% [3-^13C]L-lactate) (Cambridge Isotope, USA) as the sole carbon source to support cell growth. The inoculum was prepared in LB medium, which was grown overnight. This culture was inoculated into the minimal medium with a 0.09% inoculation volume. Both S. oneidensis and E. coli were cultured in shake flasks at 30° C. (at 200 rpm in dark). The fullerene compounds (C60, C60—OH, C60—COOH and C60-NH2) were added to the medium to different final concentrations (from 1 mg/L to 80 mg/L) before the exponential phase (OD600=0.09˜0.10). The culture's optical density at a wavelength of 600 nm (OD600) was measured in a spectrophotometer (DU®640, Beckman Instruments, Palo Alto, Calif.) every 2-3 hours. The carbon source (lactate) concentrations at each time point were determined using an enzyme test kit (r-Biopharm Inc., Darmstadt, Germany).
We used minimal medium containing [3-^13C]L-lactate to grow both organisms and test the impact of fullerenes (concentrations range from 0˜80 mg/l) on their growth. […]

[2] = system: Shewanella oneidensis MR-1; test: Growth of S. oneidensis MR-1 in minimal [3-13C]L-lactate medium with nanoparticles added (OD600); format: cell-based
Procedure: as §1
We used minimal medium containing [3-^13C]L-lactate to grow both organisms and test the impact of fullerenes (concentrations range from 0˜80 mg/l) on their growth. Since C60 is not soluble in water and cannot be uniformly suspended in the culture solution, we only applied concentrations less than 20 mg/L in the studies of non-derivatized C60.

## c12c3c4c5c1c1c6c7c2c2c8c3c3c9c4c4c%10c5c5c1c1c6c6c%11c7c2c2c7c8c3c3c8c9c4c4c9c%10c5c5c1c1c6c6c%11c2c2c7c3c3c8c4c4c9c5c1c1c6c2c3c41 [C60, C60 fullerene]
E. coli, and B. subtilis
  Conclusions: effect on growth of prokaryotic microorganisms: inhibitory to
Mouse skin
  carcinogenicity: non-carcinogenic
Solubility in water
  solubility in water: not soluble
[1]
  Conclusions: effect on 22 collection strains: No effect
Escherichia coli W3110; 20 mg/L and 40 mg/L, FIG. 4a
  E. coli growth course after addition of nanoparticles: slowed after addition of nanoparticles, then resumed their normal growth rate
Escherichia coli W3110; concentrations up to 80 mg/L (C60 less than 20 mg/L), FIG. 3a
  E. coli growth inhibition: did not significantly inhibit
[2]
  effect on S. oneidensis MR-1 (growth), summary statement: mild negative effects
[2]; 20 mg/L and 40 mg/L, FIG. 4b
  S. oneidensis growth course after addition of nanoparticles: slowed after addition of nanoparticles, then resumed their normal growth rate
[2]; concentrations up to 80 mg/L (C60 less than 20 mg/L), FIG. 3b
  S. oneidensis growth inhibition: did not significantly inhibit
